Test results from EP0706509B1, “SHORT CHAIN 2-HYDROXYCARBOXYLIC ACID-BASED DERIVATIVES OF CERAMIDES” (DSM N.V., priority 1994, dated 1995).

Key:
[1] = system: barrier function of the skin; test: Trans-epidermal water loss (TEWL, Tewameter) on volar forearms, 7 days of treatment then SDS irritation; format: in vivo, human; set-up: unit not given here
Experimental: Measurements of trans-epidermal water loss (TEWL) were performed with the Tewameter (Courage & Khazaka, Cologne, Germany). The Tewameter is a device for measurement of water evaporation on skin surfaces based on the diffusion principle discovered by A. Fick in 1885.
(§1) Two panels of each five female volunteers at the age of 19-55 years with healthy skin were included in the test.
(§2) Measurements were carried out at a temperature of 22±1°C and a relative humidity of 60±10%. Subjects were accustomed to ambient conditions for 20 min prior to any measurement. The test was carried out on the volar forearms. Initially untreated skin was measured in all six areas to find baseline values. Then the five test products were applied, one area remained untreated. The dose of applicaton was about 2 mg/cm^2. In the following 7 days a home application in the morning and evening took place. Measurements were evaluated during the treatment period on day 7 two hours after the last daily application. Then the test areas on both forearms were treated with a 5% aqueous solution of sodium lauryl sulphate (SDS) and an occlusive dressing applied to induce skin irritation. The dressing was removed two hours later, and the regions were gently washed with water and air-dried. After one hour the measurements were done when the level had stabilised.
(§3) Use of other cosmetic products was restricted on the test areas throughout the whole study.
(§4) • before start treatment; • two hours after last application on day 7; • 1 hour after irritation with SDS (2 hours under occlusion).

[2] = system: healthy human skin; test: Skin roughness by profilometry (mean depth of roughness Rz) on volar forearms, 7 days of treatment then SDS irritation; format: in vivo; set-up: unit not given here
Experimental: Roughness was measured by profilometry using a stylus instrument (OFR 01; Romano GmbH, Cologne, Germany). Silicon impressions from the test areas of the volar forearm were prepared. The dental mass Silasoft N® (Detax-K. Huber K.G., Karlsruhe, Germany) was used for making the impressions. The parameter mean depth of roughness Rz (DIN 4768/1) was measured. By convention the scan length was divided into […] equal-sized areas. In each area the distance from the highest peak to the lowest trough was established. The average of these five distances is Rz.
as §1, §2, §3, §4

[3] = system: barrier function of the skin; test: Skin colour by chromametry (Minolta Chromameter CR 300) on volar forearms, 7 days of treatment then SDS irritation; format: in vivo, human; set-up: key: CIE a* value (green-red axis); higher = redder skin
Experimental: Skin colour was measured by chromametry with a Minolta Chromameter CR 300 (Minolta, Ahrensburg, Germany) in compliance with the Commission International de l'eclairage (CIE) system, according to which the registration of colour is adjusted to the non-linear colour sensitivity of human eye. A colour is expressed in a three-dimensional coordinate system with green-red (a*), yellow-blue (b*) and L* axes (brightness). The skin surface is illuminated by a Xenon flash light and remitted light registered and analysed by a photoreceiver. Chromametry is sensitive and accurate for the characterization of redness of skin irritation. In inflamed skin a positive change on the a* axis is observed, towards red. Each value was the average of three recordings.
as §1, §2, §3, §4

[4] = system: healthy human skin; test: Desquamation: dansyl chloride fluorescence extraction score on volar forearms, 7 days of treatment then SDS irritation; format: in vivo
Experimental: The stratum corneum was stained with dansyl chloride. Dansyl chloride was mixed to homogeneity at 5% (w/w) in petrolatum and applied to the volar forearms of the volunteers under semi-occlusive tape, one day before the beginning of the study. After 24 h the patches were removed and any excess material wiped off under running tape water. Fluorescence was assessed under UV illumination for intensity and homogeneity by a trained evaluator using the following scale for fluorescence extraction: • 0 : no fluorenscence extraction • 1 : slight fluorescence extraction • 2 : moderate fluorescence extraction • 3 : strong fluorescence extraction • 4 : complete fluorescence extraction. Half scores were used when needed.
as §1, §2, §3, §4

[5] = 0.05% in oil-in-water emulsion, 7 days pretreatment, after SDS (5% aqueous, 2 h occlusion, measured 1 h later)
[6] = 0.05% in oil-in-water emulsion, about 2 mg/cm^2 morning and evening, after 7 days
[7] = 0.05% in oil-in-water emulsion, day 0 (baseline before start of treatment)
[8] = 0.2% in oil-in-water emulsion, 7 days pretreatment, after SDS (5% aqueous, 2 h occlusion, measured 1 h later)
[9] = 0.2% in oil-in-water emulsion, about 2 mg/cm^2 morning and evening, after 7 days
[10] = 0.2% in oil-in-water emulsion, day 0 (baseline before start of treatment)
[11] = 0.5% in oil-in-water emulsion, 7 days pretreatment, after SDS (5% aqueous, 2 h occlusion, measured 1 h later)
[12] = 0.5% in oil-in-water emulsion, about 2 mg/cm^2 morning and evening, after 7 days
[13] = 0.5% in oil-in-water emulsion, day 0 (baseline before start of treatment)
[14] = 0.05% in oil-in-water emulsion, 7 days pretreatment, after SDS (5% aqueous, 2 h occlusion), scale 0 to 4
[15] = 0.05% in oil-in-water emulsion, morning and evening, after 7 days, scale 0 (no) to 4 (complete fluorescence extraction)
[16] = 0.05% in oil-in-water emulsion, day 0 (baseline), scale 0 (no) to 4 (complete fluorescence extraction)
[17] = 0.2% in oil-in-water emulsion, 7 days pretreatment, after SDS (5% aqueous, 2 h occlusion), scale 0 to 4
[18] = 0.2% in oil-in-water emulsion, day 0 (baseline), scale 0 (no) to 4 (complete fluorescence extraction)
[19] = 0.5% in oil-in-water emulsion, 7 days pretreatment, after SDS (5% aqueous, 2 h occlusion), scale 0 to 4
[20] = 0.5% in oil-in-water emulsion, day 0 (baseline), scale 0 (no) to 4 (complete fluorescence extraction)

Structure (SMILES) | TEWL [1, 5] | TEWL [1, 6] | TEWL [1, 7] | TEWL [1, 8] | TEWL [1, 9] | TEWL [1, 10] | TEWL [1, 11] | TEWL [1, 12] | TEWL [1, 13] | Skin roughness [2, 5] | Skin roughness [2, 6] | Skin roughness [2, 7] | Skin roughness [2, 8] | Skin roughness [2, 9] | Skin roughness [2, 10] | Skin roughness [2, 11] | Skin roughness [2, 12] | Skin roughness [2, 13] | skin colour [3, 5] | skin colour [3, 6] | other results
CCCCCCCCCCCCCC[C@@H](O)[C@@H](O)[C@H](CO)NC(=O)C(O)CCCCCC (stereo partly shown) [Cer6/OH-C8, N-(2-hydroxyoctanoyl)-phytosphingosine] | 14.7 ± 4.2 | 5.7 ± 1.9 | 5.7 ± 1.3 | 10.12 ± 1.9 | 5.5 ± 1.6 | 5.4 ± 0.7 | 13 ± 4.4 | 7.9 ± 2.7 | 6.5 ± 2.2 | 121.8 ± 11.6 | 119.1 ± 8.8 | 133.6 ± 12.5 | 118.7 ± 7.6 | 118.5 ± 8.2 | 147.1 ± 15.5 | 82.2 ± 7.1 | 98 ± 6.9 | 111.2 ± 6 | 9.2 ± 0.8 | 6.2 ± 1.2 | skin colour [3, 7]: 7 ± 1.2; skin colour [3, 8]: 8.4 ± 0.5; skin colour [3, 9]: 6.3 ± 0.7; skin colour [3, 10]: 6.8 ± 0.5; skin colour [3, 11]: 10.2 ± 0.9; skin colour [3, 12]: 8.3 ± 1.1; skin colour [3, 13]: 6.5 ± 0.6; Desquamation (fluorescence extraction) [4, 14]: 0.8 ± 0.4; Desquamation (fluorescence extraction) [4, 15]: 0,4 ± 0,5; Desquamation (fluorescence extraction) [4, 16]: 0; Desquamation (fluorescence extraction) [4, 17]: 0,8 ± 0,4; Desquamation (fluorescence extraction) [4, 18]: 0; Desquamation (fluorescence extraction) [4, 19]: 1 ± 0; Desquamation (fluorescence extraction) ([4]; 0.5% in oil-in-water emulsion, morning and evening, after 7 days, scale 0 (no) to 4 (complete fluorescence extraction)): 0,4 ± 0,5; Desquamation (fluorescence extraction) [4, 20]: 0
CCCCCCCCCCCCCC[C@@H](O)[C@@H](O)[C@H](CO)NC(=O)[C@H](C)O [Cer6/OH-C3, N-[(S)-2-hydroxypropanoyl]-phytosphingosine] | 16.6 ± 5.2 | 8.2 ± 3.5 | 5 ± 1.1 | 13.5 ± 6 | 7.2 ± 1.6 | 6.1 ± 1.5 | 11.6 ± 3.3 | 8 ± 1.9 | 6 ± 1.2 | 96.9 ± 8.1 | 109.1 ± 16.4 | 131.2 ± 15.5 | 92.9 ± 9.7 | 91.9 ± 9.9 | 104.7 ± 9 | 116.5 ± 14.8 | 112.9 ± 15.2 | 131.1 ± 15.2 | 13.1 ± 1.8 | 7.6 ± 0.8 | skin colour [3, 7]: 6.7 ± 0.4; skin colour [3, 8]: 11.4 ± 0.6; skin colour [3, 9]: 8.5 ± 0.9; skin colour [3, 10]: 7.8 ± 0.9; skin colour [3, 11]: 9.5 ± 1.3; skin colour [3, 12]: 8.7 ± 0.7; skin colour [3, 13]: 8.2 ± 0.5; Desquamation (fluorescence extraction) [4, 14]: 0,8 ± 0,4; Desquamation (fluorescence extraction) [4, 15]: 0,2 ± 0,4; Desquamation (fluorescence extraction) [4, 16]: 0; Desquamation (fluorescence extraction) [4, 17]: 1 ± 0; Desquamation (fluorescence extraction) ([4]; 0.2% in oil-in-water emulsion, morning and evening, after 7 days, scale 0 (no) to 4 (complete fluorescence extraction)): 0,2 ± 0,4; Desquamation (fluorescence extraction) [4, 18]: 0; Desquamation (fluorescence extraction) [4, 19]: 1 ± 0; Desquamation (fluorescence extraction) [4, 20]: 0
